Assay results published in ChEMBL document CHEMBL4725370, “Discovery of Proteolysis-Targeting Chimera Molecules that Selectively Degrade the IRAK3 Pseudokinase” (J Med Chem, 2020).
The source made the active and inactive calls. No cut-off for these calls is given here.

Experiments:
[1] = target: T1, Protein cereblon/Interleukin-1 receptor-associated kinase 3 (Homo sapiens, UniProt Q9Y616+Q96SW2); assay: Protac activity at CRBN/IRAK3 in human THP1 cells assessed as induction of IRAK3 degradation at 0.1 uM measured after 6 hrs in presence of NEDD8-activating enzyme inhibitor MLN4924 by Western blot analysis; format: cell-based; details: THP-1
T1 sequence (Q96SW2 whole entry, looked up, one chain of several): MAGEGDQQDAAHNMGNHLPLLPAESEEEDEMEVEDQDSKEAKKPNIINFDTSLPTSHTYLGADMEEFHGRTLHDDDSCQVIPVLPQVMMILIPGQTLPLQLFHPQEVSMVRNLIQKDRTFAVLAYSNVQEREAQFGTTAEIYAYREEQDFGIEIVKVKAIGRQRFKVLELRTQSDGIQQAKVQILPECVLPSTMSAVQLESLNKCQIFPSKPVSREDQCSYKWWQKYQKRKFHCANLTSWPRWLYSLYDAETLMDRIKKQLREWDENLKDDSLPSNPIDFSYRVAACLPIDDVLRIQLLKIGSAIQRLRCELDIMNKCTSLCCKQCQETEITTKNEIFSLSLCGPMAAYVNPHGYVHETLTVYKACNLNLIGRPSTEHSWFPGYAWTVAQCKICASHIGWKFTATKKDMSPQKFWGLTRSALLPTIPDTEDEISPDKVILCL

[2] = target: T1, Protein cereblon/Interleukin-1 receptor-associated kinase 3; assay: Protac activity at CRBN/IRAK3 in human PBMC derived primary macrophages assessed as induction of IRAK3 degradation at 0.3 uM measured after 8 to 32 hrs by Western blot analysis; format: tissue-based; details: Primary macrophage, time hrs 8-32
[3] = target: Cyclin-dependent kinase 19 (Homo sapiens, UniProt Q9BWU1); assay: Displacement of polymer supported probe 25 binding to CDK11 in human THP-1 cell lysates preincubated for 45 mins under shaking condition followed by probe addition and measured after 30 mins by mass spectrometry based chemoproteomic analysis; format: subcellular; details: read-out: Kd(app)
Cyclin-dependent kinase 19, sequence (Q9BWU1 whole entry): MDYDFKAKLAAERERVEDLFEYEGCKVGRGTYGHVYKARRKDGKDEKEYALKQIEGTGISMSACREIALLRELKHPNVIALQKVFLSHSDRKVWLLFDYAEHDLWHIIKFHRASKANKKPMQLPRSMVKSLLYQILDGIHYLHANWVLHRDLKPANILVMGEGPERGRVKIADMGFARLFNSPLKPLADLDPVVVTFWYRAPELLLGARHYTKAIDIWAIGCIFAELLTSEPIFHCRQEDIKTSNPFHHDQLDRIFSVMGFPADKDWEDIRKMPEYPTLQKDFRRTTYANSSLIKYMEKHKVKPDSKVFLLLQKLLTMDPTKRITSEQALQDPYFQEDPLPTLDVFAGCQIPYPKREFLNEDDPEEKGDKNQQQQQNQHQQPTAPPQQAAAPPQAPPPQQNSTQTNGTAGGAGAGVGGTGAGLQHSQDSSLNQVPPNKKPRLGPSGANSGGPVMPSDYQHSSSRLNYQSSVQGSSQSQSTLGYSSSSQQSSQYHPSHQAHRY

[4] = target: T1, Protein cereblon/Interleukin-1 receptor-associated kinase 3; assay: Protac activity at CRBN/IRAK3 in LPS-induced human THP1 cells assessed as induction of IRAK3 degradation at 0.1 uM measured after 6 hrs by HPLC-MS based global proteomic analysis relative to control; format: cell-based; details: THP-1
[5] = target: NT-3 growth factor receptor (Homo sapiens, UniProt Q16288); assay: Inhibition of NTRK3 (unknown origin) at 0.1 uM relative to control
NT-3 growth factor receptor, sequence (Q16288 32-839 limits assumed): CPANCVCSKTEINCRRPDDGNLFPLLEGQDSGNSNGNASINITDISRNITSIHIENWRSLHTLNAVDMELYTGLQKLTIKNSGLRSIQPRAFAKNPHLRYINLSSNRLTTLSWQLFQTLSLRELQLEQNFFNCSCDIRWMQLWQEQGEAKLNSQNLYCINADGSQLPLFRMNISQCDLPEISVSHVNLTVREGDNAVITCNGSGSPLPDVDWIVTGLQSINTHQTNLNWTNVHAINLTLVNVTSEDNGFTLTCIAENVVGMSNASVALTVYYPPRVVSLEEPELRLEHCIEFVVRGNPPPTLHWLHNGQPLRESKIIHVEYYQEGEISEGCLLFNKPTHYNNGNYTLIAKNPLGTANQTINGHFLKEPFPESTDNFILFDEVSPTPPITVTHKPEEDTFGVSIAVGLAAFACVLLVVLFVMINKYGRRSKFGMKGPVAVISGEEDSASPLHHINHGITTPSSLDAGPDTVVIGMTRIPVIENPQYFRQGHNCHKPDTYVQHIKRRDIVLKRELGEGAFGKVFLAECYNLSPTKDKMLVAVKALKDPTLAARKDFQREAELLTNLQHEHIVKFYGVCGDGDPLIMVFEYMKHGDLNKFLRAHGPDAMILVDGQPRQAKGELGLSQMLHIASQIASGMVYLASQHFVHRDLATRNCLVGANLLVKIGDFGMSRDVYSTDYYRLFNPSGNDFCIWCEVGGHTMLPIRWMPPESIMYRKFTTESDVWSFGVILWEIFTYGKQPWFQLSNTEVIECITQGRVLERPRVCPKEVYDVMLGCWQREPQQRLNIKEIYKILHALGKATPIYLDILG

[6] = target: Cyclin-C/Cyclin-dependent kinase 19 (Homo sapiens, UniProt P24863+Q9BWU1); assay: Inhibition of CDK11/cyclin C (unknown origin); format: protein-complex assay
Cyclin-C/Cyclin-dependent kinase 19, sequence (Q9BWU1 whole entry): as the sequence (Q9BWU1 whole entry) above
Cyclin-C/Cyclin-dependent kinase 19, sequence (P24863 whole entry): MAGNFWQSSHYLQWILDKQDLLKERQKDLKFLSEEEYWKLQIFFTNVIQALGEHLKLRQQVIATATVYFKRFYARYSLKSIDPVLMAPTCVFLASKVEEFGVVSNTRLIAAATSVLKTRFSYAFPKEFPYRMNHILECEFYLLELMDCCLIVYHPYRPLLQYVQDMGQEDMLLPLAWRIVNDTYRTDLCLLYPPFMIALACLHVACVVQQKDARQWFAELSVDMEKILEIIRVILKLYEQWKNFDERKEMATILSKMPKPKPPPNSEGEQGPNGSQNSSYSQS

[7] = target: CDK8/Cyclin C (Homo sapiens) (UniProt P49336+P24863); assay: Inhibition of CDK8/cyclin C (unknown origin) at 0.1 uM relative to control; format: protein-complex assay
[8] = target: Delta(24)-sterol reductase (Homo sapiens) (UniProt Q15392); assay: Displacement of polymer supported probe 25 binding to DHCR24 in human THP-1 cell lysates at 30 uM preincubated for 45 mins under shaking condition followed by probe addition and measured after 30 mins by mass spectrometry based chemoproteomic analysis relative to control; format: subcellular
Delta(24)-sterol reductase (Homo sapiens), sequence (Q15392 whole entry): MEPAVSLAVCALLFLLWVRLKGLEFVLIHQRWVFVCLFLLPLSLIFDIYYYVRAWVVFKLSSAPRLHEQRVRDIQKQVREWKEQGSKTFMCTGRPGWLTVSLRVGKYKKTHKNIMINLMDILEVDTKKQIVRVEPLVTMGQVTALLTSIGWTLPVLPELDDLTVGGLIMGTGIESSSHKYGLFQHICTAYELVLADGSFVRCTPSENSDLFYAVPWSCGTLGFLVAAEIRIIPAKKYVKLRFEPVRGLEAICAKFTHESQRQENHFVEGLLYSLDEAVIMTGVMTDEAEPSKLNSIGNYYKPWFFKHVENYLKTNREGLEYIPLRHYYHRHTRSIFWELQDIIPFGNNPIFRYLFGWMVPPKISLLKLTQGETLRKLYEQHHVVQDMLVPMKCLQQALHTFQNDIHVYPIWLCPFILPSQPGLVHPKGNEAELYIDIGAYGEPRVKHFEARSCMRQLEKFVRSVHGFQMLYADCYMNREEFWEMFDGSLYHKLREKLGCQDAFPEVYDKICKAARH

[9] = target: Protein cereblon/Interleukin-1 receptor-associated kinase 4 (Homo sapiens) (UniProt Q9NWZ3+Q96SW2); assay: Protac activity at CRBN/IRAK4 in LPS-induced human THP1 cells assessed as induction of IRAK4 degradation at 0.1 uM measured after 6 hrs by HPLC-MS based global proteomic analysis; format: cell-based; details: THP-1
Protein cereblon/Interleukin-1 receptor-associated kinase 4 (Homo sapiens), sequence (Q96SW2 whole entry, looked up, one chain of several): as the sequence (Q96SW2 whole entry, looked up, one chain of several) above

[10] = target: Protein cereblon/Delta(24)-sterol reductase (Homo sapiens) (UniProt Q15392+Q96SW2); assay: Protac activity at CRBN/DHCR24 in LPS-induced human THP1 cells assessed as induction of DHCR24 degradation at 0.1 uM measured after 6 hrs by HPLC-MS based global proteomic analysis relative to control; format: cell-based; details: THP-1
Protein cereblon/Delta(24)-sterol reductase (Homo sapiens), sequence (Q15392 whole entry, looked up): as the sequence (Q15392 whole entry) above
Protein cereblon/Delta(24)-sterol reductase (Homo sapiens), sequence (Q96SW2 whole entry, looked up): as the sequence (Q96SW2 whole entry, looked up, one chain of several) above

[11] = target: Protein cereblon (Homo sapiens, UniProt Q96SW2); assay: Inhibition of CRBN (unknown origin)
Protein cereblon, sequence (Q96SW2 whole entry): as the sequence (Q96SW2 whole entry, looked up, one chain of several) above

[12] = target: T2, Interleukin-1 receptor-associated kinase 4 (Homo sapiens, UniProt Q9NWZ3); assay: Inhibition of recombinant human full-length His-tagged IRAK4 expressed in baculovirus expression system using 5-FAM-IPTSPITTTYFFFKKK-COOH as substrate measured after 240 mins by mobility shift assay
T2 sequence (Q9NWZ3 whole entry): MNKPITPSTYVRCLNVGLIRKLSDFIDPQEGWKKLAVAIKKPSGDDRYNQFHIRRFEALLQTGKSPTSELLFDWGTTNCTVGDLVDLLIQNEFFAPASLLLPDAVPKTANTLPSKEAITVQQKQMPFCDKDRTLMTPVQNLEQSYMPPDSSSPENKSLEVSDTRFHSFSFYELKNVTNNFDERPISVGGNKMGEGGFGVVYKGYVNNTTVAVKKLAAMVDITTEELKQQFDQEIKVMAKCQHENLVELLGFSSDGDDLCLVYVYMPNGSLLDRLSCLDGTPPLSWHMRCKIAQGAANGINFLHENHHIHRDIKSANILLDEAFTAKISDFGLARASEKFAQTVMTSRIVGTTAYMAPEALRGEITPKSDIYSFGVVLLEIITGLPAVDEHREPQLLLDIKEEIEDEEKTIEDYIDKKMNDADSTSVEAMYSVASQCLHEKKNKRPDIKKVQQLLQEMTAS

[13] = target: T3, Interleukin-1 receptor-associated kinase 3 (Homo sapiens, UniProt Q9Y616); assay: Displacement of polymer supported probe 25 binding to IRAK3 in human THP-1 cell lysates preincubated for 45 mins under shaking condition followed by probe addition and measured after 30 mins by mass spectrometry based chemoproteomic analysis; format: subcellular; details: read-out: Kd(app)
T3 sequence (Q9Y616 whole entry): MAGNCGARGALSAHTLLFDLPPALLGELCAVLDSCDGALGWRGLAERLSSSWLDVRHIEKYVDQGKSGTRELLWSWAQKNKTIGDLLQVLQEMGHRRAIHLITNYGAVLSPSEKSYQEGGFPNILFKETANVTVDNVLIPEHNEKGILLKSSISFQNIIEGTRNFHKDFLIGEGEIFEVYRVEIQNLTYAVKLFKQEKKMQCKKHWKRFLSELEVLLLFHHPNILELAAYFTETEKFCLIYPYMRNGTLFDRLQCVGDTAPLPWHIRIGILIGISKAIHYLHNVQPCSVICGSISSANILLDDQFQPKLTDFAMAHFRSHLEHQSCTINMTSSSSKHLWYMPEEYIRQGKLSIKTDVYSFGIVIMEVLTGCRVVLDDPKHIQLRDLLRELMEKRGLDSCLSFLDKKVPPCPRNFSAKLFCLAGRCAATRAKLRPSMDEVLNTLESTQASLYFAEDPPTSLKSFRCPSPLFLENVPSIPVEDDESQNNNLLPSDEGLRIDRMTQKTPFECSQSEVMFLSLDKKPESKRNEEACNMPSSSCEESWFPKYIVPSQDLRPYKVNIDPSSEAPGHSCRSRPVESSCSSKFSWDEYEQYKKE

[14] = target: Cereblon/Ikaros (Homo sapiens) (UniProt Q96SW2+Q13422); assay: Protac activity at CRBN/IKZF1 in LPS-induced human THP1 cells assessed as induction of IKZF1 degradation at 0.1 uM measured after 6 hrs by HPLC-MS based global proteomic analysis; format: cell-based; details: THP-1

**Q.** Which Activity [1] does the source give for CC(C)c1ccn2ncnc(N[C@H]3CC[C@@H](N4CCN(C(=O)CCC(=O)N5CCC(CCN6CCN(c7ccc8c(c7)C(=O)N(C7CCC(=O)NC7=O)C8=O)CC6)CC5)CC4)CC3)c12 (some centres undefined) here?
**A.** inactive

**Q.** What about the Activity [2] of the same compound?
**A.** Active

**Q.** And the Kd [3]?
**A.** > 30000 nM

**Q.** What about the fold change (FC) [4] of the same compound?
**A.** -1.8

**Q.** What about the inhibition [5] of the same compound?
**A.** 60%

**Q.** What about the IC50 [6] of the same compound?
**A.** 16 nM

**Q.** And the inhibition [7]?
**A.** 69%

**Q.** And the inhibition [8]?
**A.** < 40%

**Q.** And the Activity [9]?
**A.** inactive

**Q.** What about the fold change (FC) [10] of the same compound?
**A.** -1.5

**Q.** And the IC50 [11]?
**A.** 460 nM

**Q.** What about the IC50 [12] of the same compound?
**A.** 1400 nM

**Q.** What about the Kd [13] of the same compound?
**A.** 34 nM

**Q.** And the Activity [14]?
**A.** inactive
